The results in this text go back to patent publication US9365522B2, “Pyrazole amide derivative” (AMGEN INC., priority 2015, dated 2016).

The test addresses T1, human RORγ-LBD (Homo sapiens, UniProt P51449).
T1 construct: made in house; host or cells: E. coli (BL-21)
T1 sequence (P51449 262-518): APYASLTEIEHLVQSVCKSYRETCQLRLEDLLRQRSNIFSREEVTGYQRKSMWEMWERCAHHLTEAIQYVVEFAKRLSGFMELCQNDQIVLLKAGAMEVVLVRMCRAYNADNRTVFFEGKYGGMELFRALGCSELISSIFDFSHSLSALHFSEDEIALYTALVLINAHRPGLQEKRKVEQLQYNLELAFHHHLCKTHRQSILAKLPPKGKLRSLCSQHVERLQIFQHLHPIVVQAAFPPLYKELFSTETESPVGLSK
Description: ROR gamma coactivator peptide recruitment Alphascreen assay (RORγ-LBD binding to GRIP1 coactivator peptide). The class given is biochemical. The note with it: 5 nM human RORγ-LBD, 30 nM 7-β-hydroxycholesterol, 50 nM biotinylated GRIP1 coactivator peptide, overnight incubation at room temperature; read-out: result (pIC50, RORγ coactivator peptide recruitment Alphascreen assay) (converted). An outline of the steps:
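His/Flag-tagged human RORγ-LBD (aa 262-518, E. coli-expressed, 5 nM) with agonist 7-β-hydroxycholesterol (30 nM) and biotinylated GRIP1 LXXLL peptide (50 nM) in HEPES pH 7.4 buffer, 2.5% DMSO. Compound 1-in-2 dilutions; Alphascreen bead signal read after overnight incubation at room temperature; pIC50 calculated.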
In general terms: In Alpha technology, singlet oxygen from a donor bead excites a nearby acceptor bead.
`C[C@@]1(CN(CC(=O)c2c(Cl)cncc2Cl)C(=O)c2cnn([C@H]3CC[C@](C)(C(=O)O)CC3)c2C(F)(F)F)CCCO1` [Example 660, trans-4-(4-((2-(3,5-dichloro-4-pyridinyl)-2-oxoethyl)(((2S)-2-methyltetrahydro-2-furanyl)methyl)carbamoyl)-5-(trifluoromethyl)-1H-pyrazol-1-yl)-1-methylcyclohexanecarboxylic acid]: the IC50 is 25.7 nM. With `C[C@]1(CN(CC(=O)c2c(Cl)cncc2Cl)C(=O)c2cnn([C@H]3CC[C@](C)(C(=O)O)CC3)c2C(F)(F)F)CCCO1` [Example 661, trans-4-(4-((2-(3,5-dichloro-4-pyridinyl)-2-oxoethyl)(((2R)-2-methyltetrahydro-2-furanyl)methyl)carbamoyl)-5-(trifluoromethyl)-1H-pyrazol-1-yl)-1-methylcyclohexanecarboxylic acid], the IC50 was 20.4 nM. Take `C[C@H]1C[C@H](n2ncc(C(=O)N(CC(=O)c3c(Cl)cccc3Cl)CC3CC(C)(C)C3)c2C(F)(F)F)CC[C@H]1C(=O)O` [Example 662, (1R,2S,4R)-4-(4-((2-(2,6-dichlorophenyl)-2-oxoethyl)((3,3-dimethylcyclobutyl)methyl)carbamoyl)-5-(trifluoromethyl)-1H-pyrazol-1-yl)-2-methylcyclohexanecarboxylic acid]: the IC50 is 7.08 nM. `C[C@@H]1C[C@@H](n2ncc(C(=O)N(CC(=O)c3c(Cl)cccc3Cl)CC3CC(C)(C)C3)c2C(F)(F)F)CC[C@@H]1C(=O)O` [Example 663, (1S,2R,4S)-4-(4-((2-(2,6-dichlorophenyl)-2-oxoethyl)((3,3-dimethylcyclobutyl)methyl)carbamoyl)-5-(trifluoromethyl)-1H-pyrazol-1-yl)-2-methylcyclohexanecarboxylic acid]: the IC50 is 1.95 nM. Regarding `C[C@]1(C(=O)O)CC[C@H](n2ncc(C(=O)N(CC(=O)c3c(Cl)cc(F)cc3Cl)CC3CCCCC3)c2C(F)(F)F)CC1` [Example 664, trans-4-(4-((cyclohexylmethyl)(2-(2,6-dichloro-4-fluorophenyl)-2-oxoethyl)carbamoyl)-5-(trifluoromethyl)-1H-pyrazol-1-yl)-1-methylcyclohexanecarboxylic acid], the IC50 is 1.45 nM. For the compound `Cc1cc(Cl)c(C(=O)CN(CC2(F)CCCCC2)C(=O)c2cnn([C@H]3CC[C@](C)(C(=O)O)CC3)c2C(F)(F)F)c(Cl)c1` [Example 665, trans-4-(4-((2-(2,6-dichloro-4-methylphenyl)-2-oxoethyl)((1-fluorocyclohexyl)methyl)carbamoyl)-5-(trifluoromethyl)-1H-pyrazol-1-yl)-1-methylcyclohexanecarboxylic acid], the IC50 was 1.38 nM. `C[C@]1(C(=O)O)CC[C@H](n2ncc(C(=O)N(CC(=O)c3c(Cl)cncc3Cl)CC3(F)CCCCC3)c2C(F)(F)F)CC1` [Example 666, trans-4-(4-((2-(3,5-dichloro-4-pyridinyl)-2-oxoethyl)((1-fluorocyclohexyl)methyl)carbamoyl)-5-(trifluoromethyl)-1H-pyrazol-1-yl)-1-methylcyclohexanecarboxylic acid]: the IC50 is 4.57 nM. The same measure for `O=C(CN(CC1(F)CCCC1)C(=O)c1cnn([C@H]2CC[C@@H](C(=O)O)CC2)c1C(F)(F)F)c1c(Cl)cncc1Cl` [Example 667, cis-4-(4-((2-(3,5-dichloro-4-pyridinyl)-2-oxoethyl)((1-fluorocyclopentyl)methyl)carbamoyl)-5-(trifluoromethyl)-1H-pyrazol-1-yl)cyclohexanecarboxylic acid]: 302 nM; for `CC1(C)CC(CN(CC(=O)c2c(Cl)cccc2Cl)C(=O)c2cnn([C@H]3C[C@H](CC(=O)O)C3)c2C(F)(F)F)C1` [Example 668, (trans-3-(4-((2-(2,6-dichlorophenyl)-2-oxoethyl)((3,3-dimethylcyclobutyl)methyl)carbamoyl) 5-(trifluoromethyl)-1H-pyrazol-1-yl)cyclobutyl)acetic acid]: 3.47 nM; for `CC1(C)CC(CN(CC(=O)c2c(Cl)cccc2Cl)C(=O)c2cnn([C@H]3C[C@@H](CC(=O)O)C3)c2C(F)(F)F)C1` [Example 669, (cis-3-(4-((2-(2,6-dichlorophenyl)-2-oxoethyl)((3,3-dimethylcyclobutyl)methyl)carbamoyl) 5-(trifluoromethyl)-1H-pyrazol-1-yl)cyclobutyl)acetic acid]: 4.07 nM. In the case of `CC(C)(C)CN(CC(=O)c1c(Cl)cccc1Cl)C(=O)c1cnn([C@H]2CC[C@@H](C(=O)O)CC2)c1C(F)(F)F` [Example 670, cis-4-(4-((2-(2,6-dichlorophenyl)-2-oxoethyl)(2,2-dimethylpropyl)carbamoyl)-5-(trifluoromethyl)-1H-pyrazol-1-yl)cyclohexanecarboxylic acid], the IC50 was 21.9 nM.

Turning to `CC1(CN(CC(=O)c2c(Cl)cc(F)cc2Cl)C(=O)c2cnn([C@H]3CC[C@](C)(C(=O)O)CC3)c2C(F)(F)F)CCCC1` [Example 671, trans-4-(4-((2-(2,6-dichloro-4-fluorophenyl)-2-oxoethyl)((1-methylcyclopentyl)methyl)carbamoyl)-5-(trifluoromethyl)-1H-pyrazol-1-yl)-1-methylcyclohexanecarboxylic acid], the IC50 was 0.871 nM.

Regarding `CC1(C)CC(CN(CC(=O)c2c(Cl)cccc2Cl)C(=O)c2cnn([C@H]3CC[C@@](C)(C(=O)O)CC3)c2C(F)(F)F)C1` [Example 672, trans-4-(4-((2-(2,6-dichlorophenyl)-2-oxoethyl)((3,3-dimethylcyclobutyl)methyl)carbamoyl)-5-(trifluoromethyl)-1H-pyrazol-1-yl)-1-methylcyclohexanecarboxylic acid], the IC50 was 2.04 nM. In the case of `CC1(C)CC[C@@H](CN(CC(=O)c2c(Cl)cncc2Cl)C(=O)c2cnn([C@H]3CC[C@](C)(C(=O)O)CC3)c2C(F)(F)F)O1` [Example 673, trans-4-(4-((2-(3,5-dichloro-4-pyridinyl)-2-oxoethyl)(((2S)-5,5-dimethyltetrahydro-2-furanyl)methyl)carbamoyl)-5-(trifluoromethyl)-1H-pyrazol-1-yl)-1-methylcyclohexanecarboxylic acid], the IC50 was 36.3 nM. With `CC1(C)CC[C@H](CN(CC(=O)c2c(Cl)cncc2Cl)C(=O)c2cnn([C@H]3CC[C@](C)(C(=O)O)CC3)c2C(F)(F)F)O1` [Example 674, trans-4-(4-((2-(3,5-dichloro-4-pyridinyl)-2-oxoethyl)(((2S)-5,5-dimethyltetrahydro-2-furanyl)methyl)carbamoyl)-5-(trifluoromethyl)-1H-pyrazol-1-yl)-1-methylcyclohexanecarboxylic acid], the IC50 was 17.8 nM. For the compound `CC1(CN(CC(=O)c2c(Cl)cncc2Cl)C(=O)c2cnn([C@H]3CC[C@](C)(C(=O)O)CC3)c2C(F)(F)F)COC1` [Example 675, trans-4-(4-((2-(3,5-dichloro-4-pyridinyl)-2-oxoethyl)((3-methyl-3-oxetanyl)methyl)carbamoyl)-5-(trifluoromethyl)-1H-pyrazol-1-yl)-1-methylcyclohexanecarboxylic acid], the IC50 is 234 nM.

In the case of `Cc1cc(Cl)c(C(=O)CN(CC2(C)COC2)C(=O)c2cnn([C@H]3CC[C@](C)(C(=O)O)CC3)c2C(F)(F)F)c(Cl)c1` [Example 676, trans-4-(4-((2-(2,6-dichloro-4-methylphenyl)-2-oxoethyl)((3-methyl-3-oxetanyl)methyl)carbamoyl)-5-(trifluoromethyl)-1H-pyrazol-1-yl)-1-methylcyclohexanecarboxylic acid], the IC50 is 51.3 nM. With `C[C@]1(C(=O)O)CC[C@H](n2ncc(C(=O)N(CC(=O)c3c(Cl)cncc3Cl)[C@H]3C[C@@H]4CC[C@H]3C4)c2C(F)(F)F)CC1` [Example 677, trans-4-(4-((1S,2R,4R)-bicyclo[2.2.1]hept-2-yl(2-(3,5-dichloro-4-pyridinyl)-2-oxoethyl)carbamoyl)-5-(trifluoromethyl)-1H-pyrazol-1-yl)-1-methylcyclohexanecarboxylic acid], the IC50 was 5.62 nM. Consider `Cc1cc(Cl)c(C(=O)CN(C(=O)c2cnn([C@H]3CC[C@](C)(C(=O)O)CC3)c2C(F)(F)F)[C@H]2C[C@@H]3CC[C@H]2C3)c(Cl)c1` [Example 678, trans-4-(4-((1S,2S,4R)-bicyclo[2.2.1]hept-2-yl(2-(2,6-dichloro-4-methylphenyl)-2-oxoethyl)carbamoyl)-5-(trifluoromethyl)-1H-pyrazol-1-yl)-1-methylcyclohexanecarboxylic acid], for which the IC50 was 1.07 nM. To `CC1(C)CC[C@H](CN(CCc2c(Cl)cncc2Cl)C(=O)c2cnn([C@H]3CC[C@](C)(C(=O)O)CC3)c2C(F)(F)F)O1` [Example 679, trans-4-(4-((2-(3,5-dichloro-4-pyridinyl)ethyl)(((2R)-5,5-dimethyltetrahydro-2-furanyl)methyl)carbamoyl)-5-(trifluoromethyl)-1H-pyrazol-1-yl)-1-methylcyclohexanecarboxylic acid] belongs 12 nM; to `CC1(C)CC[C@@H](CN(CCc2c(Cl)cncc2Cl)C(=O)c2cnn([C@H]3CC[C@](C)(C(=O)O)CC3)c2C(F)(F)F)O1` [Example 680, trans-4-(4-((2-(3,5-dichloro-4-pyridinyl)ethyl)(((2S)-5,5-dimethyltetrahydro-2-furanyl)methyl)carbamoyl)-5-(trifluoromethyl)-1H-pyrazol-1-yl)-1-methylcyclohexanecarboxylic acid], 47.9 nM.
